Among the data in ChEMBL document CHEMBL4177745, “2-Methyltetrahydro-3-benzazepin-1-ols - The missing link in SAR of GluN2B selective NMDA receptor antagonists” (Bioorg Med Chem, 2018) are Ki and Ratio Ki values, retold here.

A value given as a limit tells only on which side of the number the result lay.

The nature of assay [1]: Displacement of [3H]-ifenprodil from recombinant human GluN1a/GluN2B expressed in L(tk-) cell membranes after 120 mins by scintillation counting analysis. For orientation: Loss of bound radioactivity is the signal in a displacement assay; it reports binding, not function.
The target of assay [2] is T1, Sigma intracellular receptor 2 (Rattus norvegicus, UniProt Q5U3Y7).
T1 sequence (Q5U3Y7 whole entry): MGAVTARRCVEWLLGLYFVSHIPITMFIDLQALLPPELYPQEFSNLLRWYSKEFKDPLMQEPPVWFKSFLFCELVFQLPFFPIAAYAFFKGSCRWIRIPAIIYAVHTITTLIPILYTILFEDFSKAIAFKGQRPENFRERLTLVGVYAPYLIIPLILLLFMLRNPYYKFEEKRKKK
The experiment in a line: Displacement of [3H]-DTG from sigma 2 receptor in rat liver membranes after 120 mins by scintillation counting analysis. Format: cell membranes, Membrane.

For assay [3], the target named is Sigma non-opioid intracellular receptor 1 (Cavia porcellus, UniProt Q60492). Put plainly: Displacement of [3H]-(+)-Pentazocine from sigma 1 receptor in guinea pig brain cortex membranes after 120 mins by scintillation counting analysis. Format: cell membranes.
Assay [4] in a line: Selectivity ratio of Ki for recombinant human GluN1a/GluN2B expressed in L(tk-) cell membranes to Ki for sigma 1 receptor in guinea pig brain cortex membranes. The format is cell-based.

Chain of Sigma non-opioid intracellular receptor 1 (Q60492 whole entry): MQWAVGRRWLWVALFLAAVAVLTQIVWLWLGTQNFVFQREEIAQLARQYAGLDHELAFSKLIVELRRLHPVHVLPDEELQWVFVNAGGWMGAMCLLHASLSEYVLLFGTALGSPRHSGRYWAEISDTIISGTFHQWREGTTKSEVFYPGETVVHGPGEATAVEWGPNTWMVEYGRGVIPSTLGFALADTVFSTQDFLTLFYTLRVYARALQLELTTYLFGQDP

Turning to `C[C@@H]1[C@H](O)c2ccc(O)cc2CCN1CCCCc1ccccc1`, the inhibitory constant (Ki) in assay [1] was 17 nM; in assay [2], 148 nM.
Regarding `C[C@@H]1[C@H](O)c2ccccc2CCN1CCCCc1ccccc1` (relative stereo), the figures for the Ki in assay [3], in assay [1] and in assay [2] were 46 nM, 252 nM and 126 nM, respectively. The Ratio Ki in assay [4] is 5.
With `C[C@@H]1[C@H](O)c2ccccc2CCN1Cc1ccccc1` (relative stereo), the Ki was found to be 261 nM in assay [3], 259 nM in assay [1] and 894 nM in assay [2].
As for `Oc1ccc2c(c1)CCN(CCCCc1ccccc1)CC2O` (centres undefined), the figures for the inhibitory constant (Ki) in assay [1] and in assay [2] were 14 nM and > 10000 nM, respectively.
On to `OC1CN(CCCCc2ccccc2)CCc2ccccc21` (centres undefined), for which the Ki in assay [3] is 676 nM; in assay [1], 73 nM; in assay [2], 76 nM.
As for `CC(C(O)c1ccc(O)cc1)N1CCC(Cc2ccccc2)CC1` (centres undefined) [IFENPRODIL], the Ki in assay [1] turned out to be 10 nM.
In the case of `C[C@@H]1[C@H](O)c2ccccc2CCN1CCCCCc1ccccc1` (relative stereo), the inhibition constant Ki in assay [3] came to 10 nM; in assay [1] it was 56 nM; in assay [2], 60 nM. Further, the Ratio Ki in assay [4] was found to be 5.

In general, Ki refers to a measure of affinity in units of concentration, obtained from inhibition or displacement.
